One test has as its target Protease (Human immunodeficiency virus 1, UniProt Q9YQ12). Nature of the test: Inhibition of HIV1 wild type protease using Abz-Thr-Ile-Nle-p-nitro-Phe-Gln-Arg-NH2 as substrate after 5 mins by spectrophotometry.
Test [1] addresses Human immunodeficiency virus type 1 protease (Human immunodeficiency virus 1, UniProt Q72874, I47V). Nature of the test: Inhibition of HIV1 protease I47V mutant using Abz-Thr-Ile-Nle-p-nitro-Phe-Gln-Arg-NH2 as substrate after 5 mins by spectrophotometry.
The target of test [2] is Human immunodeficiency virus type 1 protease (Human immunodeficiency virus 1, UniProt Q72874, V82A). The experiment in a line: Inhibition of HIV1 protease V82A mutant using Abz-Thr-Ile-Nle-p-nitro-Phe-Gln-Arg-NH2 as substrate after 5 mins by spectrophotometry.
The target of test [3] is Human immunodeficiency virus type 1 protease (Human immunodeficiency virus 1, UniProt Q72874, N88D). Nature of the test: Inhibition of HIV1 protease N88D mutant using Abz-Thr-Ile-Nle-p-nitro-Phe-Gln-Arg-NH2 as substrate after 5 mins by spectrophotometry.
Test [4] deals with Human immunodeficiency virus type 1 protease (Human immunodeficiency virus 1, UniProt Q72874, L76V). Nature of the test: Inhibition of HIV1 protease L76V mutant using Abz-Thr-Ile-Nle-p-nitro-Phe-Gln-Arg-NH2 as substrate after 5 mins by spectrophotometry.
For test [5], the system named is Human immunodeficiency virus 1. The experiment in a line: Resistance index, ratio of Ki for HIV1 protease I47V mutant to Ki for HIV1 wild type protease.
Test [6] deals with Human immunodeficiency virus 1. Nature of the test: Resistance index, ratio of Ki for HIV1 protease L76V mutant to Ki for HIV1 wild type protease.
The subject of test [7] is Human immunodeficiency virus 1. Nature of the test: Resistance index, ratio of Ki for HIV1 protease V82A mutant to Ki for HIV1 wild type protease.
Test [8] has as its system Human immunodeficiency virus 1. Nature of the test: Resistance index, ratio of Ki for HIV1 protease N88D mutant to Ki for HIV1 wild type protease.

Sequence of Protease (Q9YQ12 whole entry): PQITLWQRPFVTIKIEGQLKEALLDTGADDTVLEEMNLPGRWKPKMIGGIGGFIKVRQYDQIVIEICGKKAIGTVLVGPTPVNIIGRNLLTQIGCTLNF

By Ki is commonly meant the equilibrium dissociation constant of an inhibitor or competing ligand from its target. The low end stands for tighter binding, the high end for weaker binding. On to `COc1ccc(S(=O)(=O)N(C[C@H]2CCC(=O)N2)C[C@@H](O)[C@H](Cc2ccccc2)NC(=O)O[C@@H]2C[C@@H]3CCO[C@@H]3C2)cc1`, for which the Ki at Protease was 0.44 nM; in test [1], 0.46 nM; in test [2] it was 0.65 nM; in test [3], 0.92 nM; in [4], 0.8 nM. For the same compound, the Ratio Ki in test [5], in test [6], in [7] and in test [8] was less than 2 in each case.
